Five molecules from the NIST ThermoML archive (doi:10.1021/acs.jced.6b00803) can be followed below.

± gives the expanded uncertainty stated by the source.

The conditions of this data set: 298.15 K; 101.33 kPa; Liquid; Vibrating tube method.
As for `CCCCCCCCCCCCCC` [tetradecane], the mass density is 759.275 ± 3 kg/m3.

Consider `CCCCCCCCCCCCCCCC` [hexadecane], for which the mass density is 770.221 ± 3.1 kg/m3.

Consider `CC(=O)OCc1ccccc1` [benzyl ethanoate], for which the mass density came out at 1051.1 ± 4.2 kg/m3.

As to `CC(=O)CCc1ccccc1` [4-phenyl-2-butanone], the mass density was found to be 984.742 ± 4 kg/m3.

For `CCCCCCCCCCCC` [dodecane], the mass density is listed as 745.508 ± 3 kg/m3.

By mass density is commonly meant mass per unit of volume.
